Measurements taken from patent publication US7341988B2, “Method of treating influenza with geranyl-geranyl acetone” (Eisai R&D Management Co., Ltd., priority 2001, dated 2008).

Legend:
[1] = system: influenza A virus, A/PR/8/34 (H1 N1) strain; experiment: Weight loss in mouse PR8 infection model; assay type: in vivo, BALB/cN mice; conditions: GGA treated groups (oral every 12 hours for 3 weeks before infection) except the 75G-PR8 group; control weight loss reaching 30%
Protocol: FIG. 1 indicates an improvement trend of clinical infection symptoms caused by administration of GGA in a mouse PR8 infection model according to the present invention. BALC/c mice that used in the present invention were randomly allotted into the following 4 groups: (1) Control group (n=30) is transnasally administered 2×10^5 PFU of A/PR/8/34; the GGA pre-treatment groups were orally administered GGA every 12 hours for 3 weeks in doses of: (2) 150 mg/kg (150G-PR8 group; n=30), (3) 75 mg/kg (75G-PR8 group; n=30), (4) 15 mg/kg (15G-PR8 group; n=30) and were infected with PR8 after 3 weeks in the same manner. The body weights of the mice were measured 1, 2, 3, 4, 7, and 10 days after infection;
(§1) The virus used in the present invention was the influenza A virus, A/PR/8/34 (H1 N1) strain (hereinafter referred to “PR8”); the mice were 6-week old female SPF (specific pathogen-free) BALB/cN mice (Charles River Japan Co., Ltd.); and the cells were A549 cells derived from human alveolar epithelial cell.
First, the aforementioned mice were raised in a cage for each 4 mice under clean conditions and allowed free access to sterilized feed and water. […]

[2] = system: influenza A virus, A/PR/8/34 (H1 N1) strain; experiment: Viral replication in the lungs of infected mice, plaque assay using MDCK; assay type: in vivo, BALB/cN mice
Source text: as §1
(§2) The mice were randomly divided into the following 4 treatment groups, and tested: (1) Control group; intranasl infection with PR8 (2×10^5 PFU) (2) 150G-PR8; group; after administration of 150 mg/kg of GGA, infected with the same amount of PR8 in the same manner as the control group; (3) 75G-PR8 group; after administration of 75 mg/kg of GGA, infected with the same amount of PR8 in the same manner as the control group; (4) 15G-PR8 group; after administration of 15 mg/kg of GGA, infected with the same amount of PR8 in the same manner as the control group. The aforementioned group (1) refers to the control group, and groups (2) to (4) refer to the GGA treated group prior to infection. The GGA treated groups were orally administered GGA every 12 hours for 3 weeks.
FIG. 2 indicates the effects of GGA on viral replication in the lungs of the mice of the various groups after infection by an influenza virus according to the present invention. Here, the assay of virus in the lung was conducted by plaque assay using MDCK.

[3] = system: viral nucleoprotein (NP) of PR8; experiment: Viral nucleoprotein (NP) synthesis in the lungs of infected mice, Western blot and EIA; assay type: in vivo, BALB/cN mice; conditions: GGA treated groups compared with control group
Source text: as §1, §2
FIG. 3 indicates the results of the effects of GGA on viral nucleoprotein (called “NP” hereinafter) synthesis in the lungs of the mice of the various groups after infection by an influenza virus according to the present invention. The amount of NP synthesis was measured with Western blot analysis. […]

HSP70 [4] = assay type: in vivo, BALB/c mice
HSP70 [5] = experiment: HSP induction in A549 cells (northern blot, 35S-methionine pulse labeling, western blot); assay type: cell-based, human
[6] = system: influenza A virus, A/PR/8/34 (H1 N1) strain; assay type: cell-based; conditions: A549 cells
M×A genes = experiment: Expression of antiviral gene MxA in PR8-infected A549 cells, northern blot; assay type: cell-based, human
Source text: Studied next were the effects of GGA treatment on the expression of antiviral genes after infection by PR8, and the results are indicated in FIGS. 12 and 13. […] It should be noted that the GAPDH in FIG. 12 was used as a control in the same way as previously described in FIG. 5.

[7] = system: interferon-inducible double-stranded RNA activated protein kinase (PKR); experiment: PKR mRNA expression in A549 cells, RT-PCR; assay type: cell-based, human; conditions: β-actin control
Source text: FIG. 13 indicates the results of using RT-PCR to assay the mRNA expression of interferon-inducible double-stranded RNA activated protein kinase (hereinafter referred to “PKR”), which has an antiviral action. […] It should be noted that β-actin in this diagram was used was a control.

[8] = GGA treatment (+), pulse labeling

CC(=O)CC/C=C(\C)CC/C=C(\C)CC/C=C(\C)CCC=C(C)C [GGA, 6, 10, 14, 18-tetramethyl-5,9, 13, 17-nonadecatetraen-2-one]
weight loss caused by PR8 infection [1]: almost no weight loss | time after infection at which virus was completely eliminated from the lungs ([2]; 75G-PR8 group (75 mg/kg GGA)): 4 days | time after infection at which virus was completely eliminated from the lungs ([2]; 150G-PR8 group (150 mg/kg GGA)): 3 days | growth of virus in the lungs ([2]; GGA 150, 75, 15 mg/kg oral every 12 hours for 3 weeks before PR8 infection, vs control): suppressed in a GGA dose-dependent manner | NP synthesis in the lungs, Western blot [3]: suppression of NP synthesis in a dose dependent manner | capacity to synthesize NP after infection with PR8, EIA [3]: notably reduced | amount of HSP70 mRNA expressed in the lungs after PR8 infection (HSP70 [4]; […], GAPDH control): dependent on the amount of GGA administered | expression of HSP70 in the lungs, GGA alone (HSP70 [4]; mouse, in vivo): induced in a dose dependent manner | time of peak HSP70 expression after administering GGA (HSP70 [5]; A549 cells, western blot with HSP70 antibodies): 6 h | expression of HSP70 mRNA in A549 cells (HSP70 [5]; northern blot, GAPDH control): induced in a concentration and time dependent manner | HSP70 synthesis in the early period of infection [6, 8]: enhancement of HSP70 synthesis was observed | time after infection at which NP synthesis began [6, 8]: > 12 h | NP synthesis capacity compared to GGA treatment (−) ([6]; PR8 infection, pulse labeling): suppressed | capacity to synthesize viral proteins of PR8 (HA, NP, M1, NS1) ([6]; compared to the control): notably suppressed | duration of HSP70 expression after PR8 infection ([6]; densitometric analysis at 3, 6, 12, 24 hours): up to 12 hours | time after infection up to which expression of NP was prevented ([6]; western blot): up to 12 hours | expression of M×A genes (M×A genes; A549 cells after infection with PR8, GAPDH control): enhanced | expression of HSP mRNA after PR8 infection (M×A genes; A549 cells after infection with PR8, northern blot): enhanced | expression of PKR mRNA [7]: enhanced expression
